Target: T1, PI3Kα (Homo sapiens, UniProt P42336)
T1 construct: purchased Invitrogen
Assay: In vitro PI3Kα enzymatic assay (ADP-Glo / Kinase-Glo, ATP 25 μM)
Assay type: biochemical
Conditions: PI3Kα, compound 10 μM, ATP 25 μM; mean ± SD of three determinations
Description: To screen the inhibitory activity of the target compounds against PI3Kα, the Kinase-Glo™ assay with ATP at 25 μM was utilised with PIK-75 as positive control. We chose to explore the SARs at three positions on the Imidazo[1,2-a]pyridine core. To start with, a set of 8-position modifications were prepared while keeping the morpholinyl amide substituent on 2-position fixed, since it allowed quick structure − activity profiling via coupling reactions of bromide with aryl borates or boronic acids. […] We then turned our attention back to the phenyl substituents.
Briefly, the compound, PI3K enzyme (PI3Kα from Invitrogen), the PIP2 (Life Technologies) substrate, and ATP (25 μM, Sigma) were diluted in kinase buffer to the indicated concentrations. The assay plate was covered and incubated at room temperature for 1 h. Then, the Kinase-Glo reagent (Promega) was added to the PI3Kα plate to stop the reaction, mixed briefly with centrifuge, shaken slowly on the shaker and then equilibrate for 120 min. Finally, add Kinase detection reagent to each well, shake 1 min, equilibrate for 30 min before reading on a plate reader for luminescence. The data were collected on Envision and presented in Excel. IC50 values were calculated from the inhibition curves.

T1 sequence (P42336 whole entry): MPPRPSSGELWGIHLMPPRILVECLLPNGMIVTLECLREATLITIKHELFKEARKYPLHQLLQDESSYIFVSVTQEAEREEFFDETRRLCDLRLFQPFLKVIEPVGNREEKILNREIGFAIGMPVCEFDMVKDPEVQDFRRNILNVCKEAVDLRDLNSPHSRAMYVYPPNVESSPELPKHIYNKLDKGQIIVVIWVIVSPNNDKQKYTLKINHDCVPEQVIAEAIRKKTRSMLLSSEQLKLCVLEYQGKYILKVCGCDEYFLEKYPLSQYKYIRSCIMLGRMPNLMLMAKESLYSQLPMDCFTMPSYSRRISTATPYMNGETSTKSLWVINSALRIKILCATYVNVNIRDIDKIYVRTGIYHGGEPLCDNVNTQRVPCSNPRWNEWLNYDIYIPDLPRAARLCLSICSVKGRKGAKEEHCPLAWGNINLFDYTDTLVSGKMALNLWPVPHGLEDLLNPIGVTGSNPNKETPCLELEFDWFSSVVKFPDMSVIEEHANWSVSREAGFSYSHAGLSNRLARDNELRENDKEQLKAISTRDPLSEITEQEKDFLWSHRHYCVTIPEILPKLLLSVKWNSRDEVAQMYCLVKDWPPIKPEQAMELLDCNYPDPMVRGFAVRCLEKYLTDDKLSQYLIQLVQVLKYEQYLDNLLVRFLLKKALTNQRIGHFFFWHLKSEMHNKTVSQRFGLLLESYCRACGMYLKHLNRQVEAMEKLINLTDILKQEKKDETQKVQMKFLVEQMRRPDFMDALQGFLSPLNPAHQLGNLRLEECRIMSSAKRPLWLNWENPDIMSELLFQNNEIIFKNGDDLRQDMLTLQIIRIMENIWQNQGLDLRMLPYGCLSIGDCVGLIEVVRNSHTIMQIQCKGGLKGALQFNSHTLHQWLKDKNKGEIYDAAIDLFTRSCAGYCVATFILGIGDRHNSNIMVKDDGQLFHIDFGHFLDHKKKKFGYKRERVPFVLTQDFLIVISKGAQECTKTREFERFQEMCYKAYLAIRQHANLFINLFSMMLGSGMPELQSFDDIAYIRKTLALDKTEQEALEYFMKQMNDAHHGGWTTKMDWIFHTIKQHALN
T1 sequence (P27986 whole entry partner): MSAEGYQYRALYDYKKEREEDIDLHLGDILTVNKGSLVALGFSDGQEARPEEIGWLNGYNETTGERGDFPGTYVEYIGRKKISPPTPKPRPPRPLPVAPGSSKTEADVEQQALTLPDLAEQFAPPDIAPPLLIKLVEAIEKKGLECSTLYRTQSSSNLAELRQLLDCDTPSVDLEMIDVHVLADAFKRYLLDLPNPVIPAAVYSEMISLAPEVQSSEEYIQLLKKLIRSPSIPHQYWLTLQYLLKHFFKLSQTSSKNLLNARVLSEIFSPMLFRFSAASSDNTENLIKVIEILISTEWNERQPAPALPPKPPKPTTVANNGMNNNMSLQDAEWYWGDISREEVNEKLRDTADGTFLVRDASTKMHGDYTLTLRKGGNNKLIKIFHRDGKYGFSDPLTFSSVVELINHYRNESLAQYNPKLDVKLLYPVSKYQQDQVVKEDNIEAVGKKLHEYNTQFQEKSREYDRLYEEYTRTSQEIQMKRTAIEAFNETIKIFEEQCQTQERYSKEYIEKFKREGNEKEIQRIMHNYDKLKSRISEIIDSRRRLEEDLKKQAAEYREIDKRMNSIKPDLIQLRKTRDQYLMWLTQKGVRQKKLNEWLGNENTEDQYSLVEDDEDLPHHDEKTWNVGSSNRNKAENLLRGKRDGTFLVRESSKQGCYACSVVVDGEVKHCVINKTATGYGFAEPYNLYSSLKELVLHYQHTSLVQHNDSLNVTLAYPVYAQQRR

Row | Molecule | % Inhibition at 10 μM
1 | N,N-Diethyl-3–(6-methyl-2-(morpholine-4-carbonyl)Imidazo[1,2-a]pyridin-8-yl)benzenesulfonamide [Compound 19] | 58.5 ± 1.6%
2 | 1-Cyclohexyl-3–(3-(6-methyl-2–(4-methylpiperidine-1-carbonyl)Imidazo[1,2-a]pyridin-8-yl)phenyl)urea [Compound 33] | 44.5 ± 1.2%

Same assay, conditions: PI3Kα, compound 10 μM, ATP 25 μM; mean ± SD of three determinations; read-out: % Inhibition at 10 μM

Row | Molecule | inhibition at 10 µM
3 | COc1ncc(-c2cc(C)cn3cc(C(=O)N4CCC(C)CC4)nc23)cc1NS(=O)(=O)c1ccc(F)cc1 [Compound 43, 4-Fluoro-N-(2-methoxy-5–(6-methyl-2–(4-methylpiperidine-1-carbonyl)Imidazo[1,2-a]pyridin-8-yl)pyridin-3-yl)benzenesulfonamide] | 62.8 ± 4.6%
4 | Cc1cc(-c2ccncc2)c2nc(C(=O)N3CCC(C)CC3)cn2c1 [Compound 30, (6-Methyl-8-(pyridin-4-yl)Imidazo[1,2-a]pyridin-2-yl)(4-methylpiperidin-1-yl)methanone] | 9.3 ± 1.7%
5 | COc1ncc(-c2cc(C)cn3cc(C(=O)NCCCN4CCOCC4)nc23)cc1NS(=O)(=O)c1ccc(F)cc1F [Compound 39, 8–(5-((2,4-Difluorophenyl)sulfonamido)-6-methoxypyridin-3-yl)-6-methyl-N-(3-morpholinopropyl)Imidazo[1,2-a]pyridine-2-carboxamide] | 70.2 ± 3.6%
6 | CCN(CC)S(=O)(=O)c1cccc(-c2cc(C)cn3cc(C(=O)N4CCCC4)nc23)c1 [Compound 28, N,N-Diethyl-3–(6-methyl-2-(pyrrolidine-1-carbonyl)Imidazo[1,2-a]pyridin-8-yl)benzenesulfonamide] | 66.1 ± 4.4%
7 | COc1ncc(-c2cc(C)cn3cc(C(=O)NCCCN4CCOCC4)nc23)cc1NS(=O)(=O)c1ccc(F)cc1 [Compound 41, 8–(5-((4-Fluorophenyl)sulfonamido)-6-methoxypyridin-3-yl)-6-methyl-N-(3-morpholinopropyl)Imidazo[1,2-a]pyridine-2-carboxamide] | 75.7 ± 2.9%
8 | Cc1cc(-c2cccc(F)c2)c2nc(C(=O)N3CCOCC3)cn2c1 [Compound 16, (8–(3-Fluorophenyl)-6-methylImidazo[1,2-a]pyridin-2-yl)(morpholino)methanone] | 38.2 ± 3.6%
9 | Cc1cc(-c2cccnc2)c2nc(C(=O)N3CCC(C)CC3)cn2c1 [Compound 31, (6-Methyl-8-(pyridin-3-yl)Imidazo[1,2-a]pyridin-2-yl)(4-methylpiperidin-1-yl)methanone] | 28.5 ± 1.6%
10 | Cc1cc(-c2cccnc2)c2nc(C(=O)N3CCOCC3)cn2c1 [Compound 20, (6-Methyl-8-(pyridin-3-yl)Imidazo[1,2-a]pyridin-2-yl)(morpholino)methanone] | 30.2 ± 2.1%
11 | Cc1cc(-c2ccc(NC(=O)c3cccc(F)c3)cc2)c2nc(C(=O)N3CCCC3)cn2c1 [Compound 26, 3-Fluoro-N-(4–(6-methyl-2-(pyrrolidine-1-carbonyl)Imidazo[1,2-a]pyridin-8-yl)phenyl)benzamide] | 57.9 ± 4.6%
12 | COc1ncc(-c2cc(Cl)cn3cc(C(=O)NCCCN4CCOCC4)nc23)cc1NS(=O)(=O)c1ccc(F)cc1F [Compound 45, 6-Chloro-8–(5-((2,4-difluorophenyl)sulfonamido)-6-methoxypyridin-3-yl)-N-(3-morpholinopropyl)Imidazo[1,2-a]pyridine-2-carboxamide] | 59.8 ± 3.5%
13 | COc1ncc(-c2cccn3cc(C(=O)N4CCC(C)CC4)nc23)cc1NS(=O)(=O)c1ccc(F)cc1 [Compound 46, 4-Fluoro-N-(2-methoxy-5–(2-(4-methylpiperidine-1-carbonyl)Imidazo[1,2-a]pyridin-8-yl)pyridin-3-yl)benzenesulfonamide] | 40.2 ± 3%
14 | COc1ncc(-c2cc(C)cn3cc(C(=O)N4CCOCC4)nc23)cc1NS(=O)(=O)c1ccc(F)cc1F [Compound 37, 2,4-Difluoro-N-(2-methoxy-5–(6-methyl-2-(morpholine-4-carbonyl)Imidazo[1,2-a]pyridin-8-yl)pyridin-3-yl)benzenesulfonamide] | 67.5 ± 0.3%

— article PMC9858543, “Design, synthesis and evaluation of 2, 6, 8-substituted Imidazopyridine derivatives as potent PI3Kα inhibitors” (Journal of Enzyme Inhibition and Medicinal Chemistry, 2023)
